Measured values reported in patent US8022206B2 (OSI Pharmaceuticals, LLC, priority 2008, dated 2011).

How the values were obtained:
RON (human) = RON (human) (Homo sapiens, UniProt Q04912); experiment: RON (human) AlphaScreen kinase assay, Km of ATP; type: biochemical; conditions: AlphaScreen, Km of ATP; read-out: RON biochemical IC50
In short: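 Detection used PT66 AlphaScreen beads added in Tris pH 7.5/NaCl/EDTA/BSA buffer, read after 1 h incubation. Vehicle-only DMSO wells served as controls.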

MET (human) = MET (human) (Homo sapiens, UniProt P08581); experiment: MET (human) AlphaScreen kinase assay, Km of ATP; type: biochemical; conditions: AlphaScreen, Km of ATP; read-out: Met biochemical IC50
Chain of MET (human) (P08581 25-1390): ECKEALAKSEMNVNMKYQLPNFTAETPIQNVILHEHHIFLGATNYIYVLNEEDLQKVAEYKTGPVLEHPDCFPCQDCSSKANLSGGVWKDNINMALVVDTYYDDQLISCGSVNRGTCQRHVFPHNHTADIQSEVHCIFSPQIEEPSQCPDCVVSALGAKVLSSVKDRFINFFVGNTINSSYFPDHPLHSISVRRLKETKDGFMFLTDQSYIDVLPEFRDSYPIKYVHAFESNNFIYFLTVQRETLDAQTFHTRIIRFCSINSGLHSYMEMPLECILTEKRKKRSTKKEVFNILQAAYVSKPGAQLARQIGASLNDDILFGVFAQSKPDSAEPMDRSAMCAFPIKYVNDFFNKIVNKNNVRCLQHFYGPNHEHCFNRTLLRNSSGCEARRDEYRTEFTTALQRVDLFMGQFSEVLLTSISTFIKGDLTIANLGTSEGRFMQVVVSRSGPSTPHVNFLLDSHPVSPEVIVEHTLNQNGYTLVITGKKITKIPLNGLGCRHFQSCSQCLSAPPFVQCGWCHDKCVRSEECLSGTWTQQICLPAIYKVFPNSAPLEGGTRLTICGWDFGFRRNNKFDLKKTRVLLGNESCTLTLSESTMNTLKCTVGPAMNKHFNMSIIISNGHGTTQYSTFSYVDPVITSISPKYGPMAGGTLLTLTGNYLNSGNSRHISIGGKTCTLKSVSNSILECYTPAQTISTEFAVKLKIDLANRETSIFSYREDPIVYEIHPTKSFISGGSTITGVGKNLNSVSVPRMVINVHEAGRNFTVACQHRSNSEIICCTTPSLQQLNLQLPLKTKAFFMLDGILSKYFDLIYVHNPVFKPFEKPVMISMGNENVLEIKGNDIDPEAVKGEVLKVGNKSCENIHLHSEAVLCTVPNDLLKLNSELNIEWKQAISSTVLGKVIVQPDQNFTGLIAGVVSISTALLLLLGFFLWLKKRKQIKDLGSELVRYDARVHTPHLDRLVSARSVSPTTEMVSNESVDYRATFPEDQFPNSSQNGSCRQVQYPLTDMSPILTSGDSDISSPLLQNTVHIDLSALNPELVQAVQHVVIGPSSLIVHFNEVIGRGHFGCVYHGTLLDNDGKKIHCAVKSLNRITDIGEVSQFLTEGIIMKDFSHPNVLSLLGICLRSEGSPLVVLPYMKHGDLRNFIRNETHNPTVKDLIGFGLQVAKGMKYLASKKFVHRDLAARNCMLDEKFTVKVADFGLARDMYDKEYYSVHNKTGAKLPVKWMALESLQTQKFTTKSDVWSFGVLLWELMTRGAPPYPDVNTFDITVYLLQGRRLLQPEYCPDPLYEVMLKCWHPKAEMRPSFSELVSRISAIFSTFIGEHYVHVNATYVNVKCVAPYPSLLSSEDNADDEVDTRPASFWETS
In short: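 Human MET at lot-optimised concentration in 50 mM Tris pH 7.4 buffer with 1 mM DTT, compound at 1% DMSO final; enzyme starts the reaction, 60 min at RT.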

Chain of RON (human) (Q04912 25-1400): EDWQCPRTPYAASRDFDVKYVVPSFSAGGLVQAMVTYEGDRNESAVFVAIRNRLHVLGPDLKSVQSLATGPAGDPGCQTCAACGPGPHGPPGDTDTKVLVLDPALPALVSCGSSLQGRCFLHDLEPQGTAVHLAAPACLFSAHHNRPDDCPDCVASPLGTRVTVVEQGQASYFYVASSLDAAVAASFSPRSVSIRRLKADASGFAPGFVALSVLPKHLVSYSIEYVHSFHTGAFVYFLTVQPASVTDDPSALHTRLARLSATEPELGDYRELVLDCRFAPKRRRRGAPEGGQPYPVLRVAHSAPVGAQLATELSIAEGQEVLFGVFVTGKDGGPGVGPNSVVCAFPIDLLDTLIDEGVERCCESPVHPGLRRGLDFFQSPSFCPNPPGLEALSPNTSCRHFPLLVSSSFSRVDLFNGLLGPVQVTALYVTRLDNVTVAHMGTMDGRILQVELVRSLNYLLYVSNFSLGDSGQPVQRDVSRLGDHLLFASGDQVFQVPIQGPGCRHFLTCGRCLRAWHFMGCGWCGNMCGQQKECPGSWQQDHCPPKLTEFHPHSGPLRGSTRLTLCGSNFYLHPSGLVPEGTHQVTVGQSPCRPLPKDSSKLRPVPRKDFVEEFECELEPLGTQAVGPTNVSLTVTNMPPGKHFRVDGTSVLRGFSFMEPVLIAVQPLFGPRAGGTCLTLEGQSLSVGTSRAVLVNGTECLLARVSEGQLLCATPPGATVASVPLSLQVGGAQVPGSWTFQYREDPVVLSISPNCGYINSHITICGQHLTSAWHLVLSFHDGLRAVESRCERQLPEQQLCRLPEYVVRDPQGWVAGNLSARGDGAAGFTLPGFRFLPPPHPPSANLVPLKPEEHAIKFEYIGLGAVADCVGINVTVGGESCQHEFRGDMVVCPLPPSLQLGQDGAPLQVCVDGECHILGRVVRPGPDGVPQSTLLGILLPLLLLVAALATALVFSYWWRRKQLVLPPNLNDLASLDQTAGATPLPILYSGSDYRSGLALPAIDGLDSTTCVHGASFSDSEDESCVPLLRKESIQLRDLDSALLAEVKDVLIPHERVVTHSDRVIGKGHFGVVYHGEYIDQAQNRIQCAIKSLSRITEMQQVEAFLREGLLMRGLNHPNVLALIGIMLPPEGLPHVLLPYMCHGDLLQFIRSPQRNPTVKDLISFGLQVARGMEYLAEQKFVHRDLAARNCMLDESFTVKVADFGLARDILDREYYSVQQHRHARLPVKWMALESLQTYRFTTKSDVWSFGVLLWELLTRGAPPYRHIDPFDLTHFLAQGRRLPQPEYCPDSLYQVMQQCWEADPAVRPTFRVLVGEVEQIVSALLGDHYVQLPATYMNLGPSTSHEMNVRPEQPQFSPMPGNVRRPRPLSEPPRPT

| SMILES | IC50 (RON (human)) [nM] | IC50 (MET (human)) [nM] |
| --- | --- | --- |
| CCNC(=O)c1cc(-c2coc3c(O[C@H](C)c4c(Cl)ccc(F)c4Cl)c(N)ncc23)cs1 [Example 314, 4-{6-Amino-7-[(R)-1-(2,6-dichloro-3-fluorophenyl)ethoxy]furo[3,2-c]pyridin-3-yl}-thiophene-2-carboxylic acid Ethylamide] | 500 to 5000 | 500 to 5000 |
| C[C@@H](Oc1c(N)ncc2c(-c3cnn(C4CCNCC4)c3)c(C#CCCO)oc12)c1c(Cl)ccc(F)c1Cl [Example 172, 4-[6-Amino-7-[(R)-1-(2,6-dichloro-3-fluorophenyl)ethoxy]-3-(1-piperidin-4-yl-1H-pyrazol-4-yl)-furo[3,2-c]pyridin-2-yl]-but-3-yn-1-ol] | < 500 | < 500 |
| C[C@@H](Oc1c(N)ncc2c(-c3csc(C=O)c3)coc12)c1c(Cl)ccc(F)c1Cl [Example 302, 4-{6-Amino-7-[(R)-1-(2,6-dichloro-3-fluorophenyl)ethoxy]furo[3,2-c]pyridin-3-yl}thiophene-2-carbaldehyde] | 500 to 5000 | 500 to 5000 |
| C[C@@H](Oc1c(N)ncc2c(C3=CCN(C(=O)N4CCN(C)CC4)CC3)coc12)c1c(Cl)ccc(F)c1Cl [Example 225, (4-{6-Amino-7-[(R)-1-(2,6-dichloro-3-fluorophenyl)-ethoxy]-furo[3,2-c]pyridin-3-yl}-3,6-dihydro-2H-pyridin-1-yl)-(4-methylpiperazin-1-yl)-methanone] | < 500 | < 500 |
| C[C@@H](Oc1c(N)ncc2ccoc12)c1nnc2ccc(-c3ccccc3)nn12 [Example 471, 7-[(1R)-1-(6-phenyl[1,2,4]triazolo[4,3-b]pyridazin-3-yl)ethoxy]furo[3,2-c]pyridin-6-amine] | > 20000 | 5000 to 20000 |
| C[C@@H](Oc1c(N)ncc2c(C3=CCN(C(=O)N4CCN(C(C)(C)C)CC4)CC3)coc12)c1c(Cl)ccc(F)c1Cl [Example 29, (4-{6-Amino-7-[(R)-1-(2,6-dichloro-3-fluorophenyl)-ethoxy]-furo[3,2-c]pyridin-3-yl}-3,6-dihydro-2H-pyridin-1-yl)-(4-tert-butylpiperazin-1-yl)-methanone] | < 500 | < 500 |
| C[C@@H](Oc1c(N)ncc2c(-c3ccc(CO)nc3)coc12)c1c(Cl)ccc(F)c1Cl [Example 118, (5-{6-Amino-7-[(R)-1-(2,6-dichloro-3-fluorophenyl)ethoxy]furo[3,2-c]pyridin-3-yl}pyridin-2-yl)methanol] | 500 to 5000 | < 500 |
| C[C@@H](Oc1c(N)ncc2c(-c3cnn(C4CCN(C=O)CC4)c3)coc12)c1c(Cl)ccc(F)c1Cl [Example 277, 4-(4-{6-Amino-7-[(1R)-1-(2,6-dichloro-3-fluorophenyl)ethoxy]furo[3,2-c]pyridin-3-yl}-1H-pyrazol-1-yl)piperidine-1-carbaldehyde] | 500 to 5000 | 500 to 5000 |
| C[C@@H](Oc1c(N)ncc2c(-c3cnn(C4CCNCC4)c3)c(C#CC(C)(C)O)oc12)c1c(Cl)ccc(F)c1Cl [Example 171, 4-[6-Amino-7-[(R)-1-(2,6-dichloro-3-fluorophenyl)ethoxy]-3-(1-piperidin-4-yl-1H-pyrazol-4-yl)-furo[3,2-c]pyridin-2-yl]-2-methylbut-3-yn-2-ol] | < 500 | < 500 |
| CC(C)CC(Oc1c(N)ncc2c(-c3cnn(C4CCNCC4)c3)coc12)c1c(Cl)ccc(F)c1Cl (stereo not drawn) [Example 366, 7-[1-(2,6-Dichloro-3-fluorophenyl)-3-methylbutoxy]-3-(1-piperidin-4-yl-1H-pyrazol-4-yl)furo[3,2-c]pyridin-6-ylamine] | 500 to 5000 | 500 to 5000 |
| C[C@@H](Oc1c(N)ncc2c(-c3ccnc(N4CCN(C)CC4)c3)coc12)c1c(Cl)ccc(F)c1Cl [Example 89, 7-[(R)-1-(2,6-Dichloro-3-fluorophenyl)ethoxy]-3-[2-(4-methylpiperazin-1-yl)pyridin-4-yl]-furo[3,2-c]pyridin-6-ylamine] | < 500 | < 500 |
| C[C@@H](Oc1c(N)ncc2c(C(=O)NCCCN(C)C)coc12)c1c(Cl)ccc(F)c1Cl [Example 189, 6-Amino-7-[(R)-1-(2,6-dichloro-3-fluorophenyl)ethoxy]furo[3,2-c]pyridine-3-carboxylic acid (3-dimethylaminopropyl)amide] | 500 to 5000 | < 500 |
| CCCN1CC=C(c2coc3c(O[C@H](C)c4c(Cl)ccc(F)c4Cl)c(N)ncc23)CC1 [Example 42, 7-[(R)-1-(2,6-Dichloro-3-fluorophenyl)-ethoxy]-3-(1-propyl-1,2,3,6-tetrahydropyridin-4-yl)-furo[3,2-c]pyridin-6-ylamine] | < 500 | < 500 |

The next lines start with the values.

| IC50 (RON (human)) [nM] | IC50 (MET (human)) [nM] | SMILES |
| --- | --- | --- |
| 5000 to 20000 | 500 to 5000 | CNC(=O)c1ccc(C(C)Oc2c(N)ncc3c(-c4cnn(C5CCNCC5)c4)coc23)cc1 (stereo not drawn) [Example 421, 4-{1-[6-Amino-3-(1-piperidin-4-yl-1H-pyrazol-4-yl)furo[3,2-c]pyridin-7-yloxy]ethyl}-N-methylbenzamide] |
| 500 to 5000 | < 500 | CC(Cc1ccc(Cl)cc1)Oc1c(N)ncc2c(-c3cnn(C4CCNCC4)c3)coc12 (stereo not drawn) [Example 370, 7-[2-(4-Chlorophenyl)-1-methylethoxy]-3-(1-piperidin-4-yl-1H-pyrazol-4-yl)furo[3,2-c]pyridin-6-ylamine] |
| 500 to 5000 | 500 to 5000 | C[C@@H](Oc1c(N)ncc2c(-c3ccc(C(N)=O)cc3)coc12)c1c(Cl)ccc(F)c1Cl [Example 63, 4-{6-Amino-7-[(R)-1-(2,6-dichloro-3-fluorophenyl)ethoxy]-furo[3,2-c]pyridin-3-yl}benzamide] |
| < 500 | < 500 | C[C@@H](Oc1c(N)ncc2c(-c3csc(CN(C)C)c3)coc12)c1c(Cl)ccc(F)c1Cl [Example 303, 7-[(R)-1-(2,6-Dichloro-3-fluorophenyl)ethoxy]-3-(5-dimethyl-aminomethylthiophen-3-yl)furo[3,2-c]pyridin-6-ylamine] |
| < 500 | < 500 | C[C@@H](Oc1c(N)ncc2c(-c3ccc(N4CCNCC4)nc3)coc12)c1c(Cl)ccc(F)c1Cl [Example 130, 7-[(R)-(2,6-Dichloro-3-fluorophenyl)ethoxy]-3-(6-piperazin-1-yl-pyridin-3-yl)furo[3,2-c]pyridin-6-ylamine] |
| 500 to 5000 | 500 to 5000 | C[C@@H](Oc1c(N)ncc2c(-c3ccc(C(=O)N4CCC(O)CC4)cc3)coc12)c1c(Cl)ccc(F)c1Cl [Example 296, (4-{6-Amino-7-[(R)-1-(2,6-dichloro-3-fluorophenyl)ethoxy]furo[3,2-c]pyridin-3-yl}phenyl)-(4-hydroxypiperidin-1-yl)methanone] |
| 500 to 5000 | < 500 | CC(Cc1ccccc1C(F)(F)F)Oc1c(N)ncc2c(-c3cnn(C4CCNCC4)c3)coc12 (stereo not drawn) [Example 435, 7-[1-Methyl-2-(2-trifluoromethylphenyl)ethoxy]-3-(1-piperidin-4-yl-1H-pyrazol-4-yl)furo[3,2-c]pyridin-6-ylamine] |
| 500 to 5000 | < 500 | CC(Oc1c(N)ncc2c(-c3cnn(C4CCNCC4)c3)coc12)c1cc(F)cc(-c2ccn[nH]2)c1 (stereo not drawn) [Example 450, 7-{1-[3-Fluoro-5-(2H-pyrazol-3-yl)phenyl]ethoxy}-3-(1-piperidin-4-yl-1H-pyrazol-4-yl)furo[3,2-c]pyridin-6-ylamine] |
